Measured values reported in PubChem BioAssay (NCI).
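Grown in 96-well plates, cells were treated for 48 hours with each compound at five concentrations. Insufficient inhibition: endpoint recorded as highest concentration tested. TGI denotes the concentration required for complete inhibition of growth.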

Legend:
Experiment in all cases: NCI anticancer screen, dose series, 48 h
[1] = test system: MDA-MB-435
[2] = test system: MCF7 breast
[3] = test system: PC-3 prostate
[4] = test system: HT29 colon
[5] = test system: OVCAR-3 ovarian
[6] = test system: HCT-15 colon
[7] = test system: KM12 colon
[8] = test system: NCI-H522 lung
[9] = test system: NCI-H460 lung
[10] = test system: SK-MEL-2 melanoma
[11] = test system: NCI-H226 lung
[12] = test system: RXF 393 renal
[13] = test system: UO-31 renal
[14] = test system: HOP-92 NSCLC
[15] = test system: ACHN renal
[16] = test system: UACC-62 melanoma
[17] = test system: NCI-H23 lung
[18] = test system: SF-295 CNS
[19] = test system: MOLT-4 leukemia
[20] = test system: RPMI-8226 leukemia

With `Cn1c2c(c3ccccc31)CCN=C2C1CCCOC1=O` (stereo not drawn) the TGI [1] was over 100 µM, the TGI [2] was over 100 µM and the TGI [3] was over 100 µM. The TGI [4] was over 100 µM, the TGI [5] was over 100 µM and the TGI [6] was over 100 µM. The TGI [7] was over 100 µM, the TGI [8] was over 100 µM and the TGI [9] was over 100 µM. It also gave a TGI [10] of over 100 µM, a TGI [11] of over 100 µM and a TGI [12] of over 100 µM. For the same compound, the TGI [13] was over 100 µM, the TGI [14] was over 100 µM and the TGI [15] was over 100 µM. It also gave a TGI [16] of over 100 µM.
Work on `Cc1c(O)c(OC2OC(CO)C(O)C(O)C2O)cc2c1CC[C@@H]1C2(C)C(=O)C[C@]2(C)[C@@H]([C@@](C)(O)C3CCC(C)(C)O3)[C@H](O)C[C@@]12C` (stereo partly drawn) yielded a TGI [1] of over 100 µM, a TGI [2] of over 100 µM and a TGI [17] of over 100 µM. The TGI [3] was over 100 µM, the TGI [18] was over 100 µM and the TGI [4] was over 100 µM. For the same compound, the TGI [5] was over 100 µM, the TGI [6] was over 100 µM and the TGI [7] was over 100 µM. It also gave a TGI [8] of over 100 µM, a TGI [9] of over 100 µM and a TGI [10] of over 100 µM. The TGI [11] was over 100 µM, the TGI [12] was over 100 µM and the TGI [13] was over 100 µM. It also gave a TGI [14] of over 100 µM, a TGI [19] of over 100 µM and a TGI [15] of over 100 µM. The TGI [16] was over 100 µM.
Work on `Cc1c(O)c(OC2OC(CO)C(O)C(O)C2O)cc2c1C=C[C@@H]1[C@@]2(C)C(=O)C[C@]2(C)[C@@H]([C@@](C)(O)C(O)/C=C/C(C)(C)O)[C@H](O)C[C@@]12C` (stereo partly drawn) yielded a TGI [1] of over 100 µM, a TGI [2] of over 100 µM and a TGI [17] of over 100 µM. For the same compound, the TGI [3] was over 100 µM, the TGI [18] was over 100 µM and the TGI [4] was over 100 µM. The TGI [5] was over 100 µM, the TGI [6] was over 100 µM and the TGI [7] was over 100 µM. It also gave a TGI [8] of over 100 µM, a TGI [9] of over 100 µM and a TGI [10] of over 100 µM. It also gave a TGI [11] of over 100 µM, a TGI [12] of over 100 µM and a TGI [13] of over 100 µM. For the same compound, the TGI [14] was over 100 µM, the TGI [19] was over 100 µM and the TGI [15] was over 100 µM. The TGI [16] was over 100 µM.
`COC1=N[C@H](C(C)C)C(OC)=N[C@H]1Cc1ccc(C[C@@H]2N=C(OC)[C@@H](C(C)C)N=C2OC)s1` was tested, and the TGI [1] was over 100 µM, the TGI [2] was 59.4 µM and the TGI [17] was 72.9 µM. The TGI [3] was 69.2 µM, the TGI [18] was over 100 µM and the TGI [4] was 96.3 µM. The TGI [5] was over 100 µM, the TGI [6] was over 100 µM and the TGI [7] was over 100 µM. It also gave a TGI [8] of 63.2 µM, a TGI [9] of over 100 µM and a TGI [10] of 49.3 µM. The TGI [13] was over 100 µM, the TGI [14] was over 100 µM and the TGI [19] was 41 µM. It also gave a TGI [15] of over 100 µM and a TGI [16] of over 100 µM.
With `c1csc(-c2nccc3c2[nH]c2ccccc23)c1` the TGI [1] was 32.2 µM, the TGI [2] was 20.8 µM and the TGI [17] was 38.2 µM. It also gave a TGI [3] of 61.3 µM, a TGI [18] of 34.9 µM and a TGI [4] of 29.3 µM. The TGI [5] was 49.4 µM, the TGI [6] was 48.1 µM and the TGI [7] was 34.4 µM. It also gave a TGI [8] of 41.5 µM, a TGI [9] of 57 µM and a TGI [10] of 41.8 µM. For the same compound, the TGI [11] was 32 µM, the TGI [12] was 36.1 µM and the TGI [14] was 41.5 µM. For the same compound, the TGI [19] was 51.5 µM, the TGI [15] was 73.7 µM and the TGI [16] was 62.4 µM.
Compound `O=C(O)Cc1ccc(Nc2nc3ccccc3nc2C(=O)O)cc1` has a TGI [1] of over 100 µM, a TGI [2] of over 100 µM and a TGI [17] of over 100 µM. It also gave a TGI [3] of over 100 µM, a TGI [18] of over 100 µM and a TGI [4] of over 100 µM. The TGI [5] was over 100 µM, the TGI [6] was over 100 µM and the TGI [7] was over 100 µM. For the same compound, the TGI [8] was over 100 µM, the TGI [9] was over 100 µM and the TGI [10] was over 100 µM. It also gave a TGI [11] of over 100 µM, a TGI [12] of over 100 µM and a TGI [13] of over 100 µM. The TGI [14] was over 100 µM, the TGI [19] was over 100 µM and the TGI [15] was over 100 µM. It also gave a TGI [16] of over 100 µM.
`Cc1csc(NNC(N)=O)n1` gave a TGI [1] of over 100 µM, a TGI [2] of over 100 µM and a TGI [17] of over 100 µM. It also gave a TGI [3] of over 100 µM, a TGI [18] of over 100 µM and a TGI [4] of over 100 µM. For the same compound, the TGI [5] was over 100 µM, the TGI [6] was over 100 µM and the TGI [7] was over 100 µM. The TGI [8] was over 100 µM, the TGI [9] was over 100 µM and the TGI [10] was over 100 µM. For the same compound, the TGI [11] was over 100 µM, the TGI [12] was over 100 µM and the TGI [13] was over 100 µM. For the same compound, the TGI [14] was over 100 µM, the TGI [19] was over 100 µM and the TGI [15] was over 100 µM. The TGI [16] was over 100 µM.
`O=c1[nH]nc(-c2ccccc2)n1/N=C/c1ccco1` was tested, and the TGI [1] was over 100 µM, the TGI [2] was over 100 µM and the TGI [17] was over 100 µM. It also gave a TGI [3] of over 100 µM, a TGI [18] of over 100 µM and a TGI [4] of over 100 µM. It also gave a TGI [5] of over 100 µM, a TGI [6] of over 100 µM and a TGI [7] of over 100 µM. The TGI [8] was over 100 µM, the TGI [9] was over 100 µM and the TGI [10] was over 100 µM. For the same compound, the TGI [12] was over 100 µM, the TGI [13] was over 100 µM and the TGI [14] was over 100 µM. It also gave a TGI [19] of over 100 µM, a TGI [15] of over 100 µM and a TGI [16] of over 100 µM.
Work on `CC(=O)NC1C(OC(C)C(=O)NC(C(=O)NC(CCC(=O)NCCCNC2c3ccccc3Nc3cccc([N+](=O)[O-])c32)C(N)=O)C(C)C)C(O)C(CO)OC1(C)OCc1ccccc1` (stereo not drawn) yielded a TGI [20] of 1.01 µM, a TGI [1] of 2.77 µM and a TGI [2] of 2.85 µM. For the same compound, the TGI [17] was 3.3 µM, the TGI [3] was 3.33 µM and the TGI [18] was 3.23 µM. For the same compound, the TGI [4] was 0.417 µM, the TGI [5] was 2.85 µM and the TGI [6] was 1.97 µM. The TGI [7] was 3.48 µM, the TGI [8] was 2.37 µM and the TGI [9] was 0.405 µM. For the same compound, the TGI [10] was 3.56 µM, the TGI [11] was 2.95 µM and the TGI [12] was 2.13 µM. The TGI [13] was 2.73 µM, the TGI [19] was 2.6 µM and the TGI [15] was 2.19 µM. It also gave a TGI [16] of 2.1 µM.
Work on `CC1=NN(c2nc(N)nc(CSc3cc(Cl)c(C)cc3S(N)(=O)=O)n2)C(C)(C)C1` yielded a TGI [20] of over 10 µM, a TGI [1] of over 10 µM and a TGI [2] of over 10 µM. It also gave a TGI [17] of over 10 µM, a TGI [3] of over 10 µM and a TGI [18] of over 10 µM. It also gave a TGI [4] of over 10 µM, a TGI [5] of over 10 µM and a TGI [6] of over 10 µM. The TGI [7] was over 10 µM, the TGI [8] was over 10 µM and the TGI [9] was over 10 µM. For the same compound, the TGI [10] was over 10 µM, the TGI [11] was over 10 µM and the TGI [12] was over 10 µM. It also gave a TGI [13] of 0.953 µM, a TGI [19] of over 10 µM and a TGI [15] of over 10 µM. It also gave a TGI [16] of over 10 µM.
